Test results reported in PMC9742833.
Counter-ions that a name gives are not always drawn.

Key:
[1] = cited from earlier work
[2] = molecular target: T1, CYP2C19 (Homo sapiens, UniProt P33261); test: Vivid CYP450 fluorescence assay, reversible inhibition
[3] = system: T2, CYP2C8; test: Time-dependent inhibition (IC50 shift, NADPH pre-incubation); format: biochemical, human; details: CYP2C8 (stated for all 8 CYPs)
T2 construct: purchased Life Technologies
Protocol: (§1) The procedure followed was similar to that used for screening of CYP reversible inhibition as mentioned above but with slight modifications. The master premix was added with NADP^+ to produce NADPH before the pre-incubation. The mixture was incubated for 30 min with shaking under similar range of concentrations of cathinone as mentioned above for IC50 determination. […] The IC50 shift was derived by calculating ratios of IC50 obtained from pre-incubation with and without NADPH. An IC50 shift ratio of more than 2 signifies irreversible time-dependent inhibition.

[4] = from 36.1 to 59.2 g of khat chewed, mean ± SD; cited from earlier work
[5] = molecular target: T3, CYP3A5 (Homo sapiens, UniProt P20815); test: Vivid CYP450 fluorescence assay, reversible inhibition
[6] = system: CYP2D6; details: human CYP2D6, in vitro; cited from earlier work
[7] = system: CYP2C9; details: human CYP2C9, in vitro; cited from earlier work
[8] = system: CYP2C8; test: Vivid CYP450 fluorescence assay, reversible inhibition; details: CYP2C8, substrate DBOMF, cathinone 0 to 1000 µM
[9] = molecular target: T4, CYP2E1 (Homo sapiens, UniProt P05181); test: as above
[10] = molecular target: T5, CYP1A2 (Homo sapiens, UniProt P05177); test: as above
T5 sequence (P05177 2-516 limits assumed): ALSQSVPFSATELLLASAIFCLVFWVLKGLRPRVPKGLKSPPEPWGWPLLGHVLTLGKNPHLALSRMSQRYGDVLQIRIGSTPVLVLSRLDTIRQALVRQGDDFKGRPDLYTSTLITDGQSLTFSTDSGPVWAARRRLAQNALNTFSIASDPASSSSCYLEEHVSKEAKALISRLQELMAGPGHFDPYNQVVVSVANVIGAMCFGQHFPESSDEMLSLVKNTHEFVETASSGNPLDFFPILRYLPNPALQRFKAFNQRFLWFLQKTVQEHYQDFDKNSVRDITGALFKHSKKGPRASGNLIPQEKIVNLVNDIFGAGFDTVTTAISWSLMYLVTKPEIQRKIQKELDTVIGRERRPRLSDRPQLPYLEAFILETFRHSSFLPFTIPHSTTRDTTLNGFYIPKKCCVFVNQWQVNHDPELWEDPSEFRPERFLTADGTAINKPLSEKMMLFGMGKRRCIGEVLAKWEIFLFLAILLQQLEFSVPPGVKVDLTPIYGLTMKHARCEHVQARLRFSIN

[11] = system: CYP3A4; details: human CYP3A4, in vitro; cited from earlier work
[12] = molecular target: T6, CYP2B6 (Homo sapiens, UniProt P20813); test: Vivid CYP450 fluorescence assay, reversible inhibition
T6 sequence (P20813 1-491): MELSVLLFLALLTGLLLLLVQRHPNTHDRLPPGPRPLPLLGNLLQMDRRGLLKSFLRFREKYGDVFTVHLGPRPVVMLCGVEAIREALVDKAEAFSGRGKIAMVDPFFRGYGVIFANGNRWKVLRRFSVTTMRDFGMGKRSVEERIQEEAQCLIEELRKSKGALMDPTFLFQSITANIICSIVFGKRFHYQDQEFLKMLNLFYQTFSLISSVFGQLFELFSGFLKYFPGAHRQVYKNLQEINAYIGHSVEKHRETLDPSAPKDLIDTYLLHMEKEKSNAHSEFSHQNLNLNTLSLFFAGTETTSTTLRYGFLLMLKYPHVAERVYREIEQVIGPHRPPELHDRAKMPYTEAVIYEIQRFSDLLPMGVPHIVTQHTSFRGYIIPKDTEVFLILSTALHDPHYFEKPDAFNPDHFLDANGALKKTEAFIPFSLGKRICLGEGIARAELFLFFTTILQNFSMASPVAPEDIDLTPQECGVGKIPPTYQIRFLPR

[13] = molecular target: T7, CYP2A6 (Homo sapiens, UniProt P11509); test: as above
T7 sequence (P11509 1-494): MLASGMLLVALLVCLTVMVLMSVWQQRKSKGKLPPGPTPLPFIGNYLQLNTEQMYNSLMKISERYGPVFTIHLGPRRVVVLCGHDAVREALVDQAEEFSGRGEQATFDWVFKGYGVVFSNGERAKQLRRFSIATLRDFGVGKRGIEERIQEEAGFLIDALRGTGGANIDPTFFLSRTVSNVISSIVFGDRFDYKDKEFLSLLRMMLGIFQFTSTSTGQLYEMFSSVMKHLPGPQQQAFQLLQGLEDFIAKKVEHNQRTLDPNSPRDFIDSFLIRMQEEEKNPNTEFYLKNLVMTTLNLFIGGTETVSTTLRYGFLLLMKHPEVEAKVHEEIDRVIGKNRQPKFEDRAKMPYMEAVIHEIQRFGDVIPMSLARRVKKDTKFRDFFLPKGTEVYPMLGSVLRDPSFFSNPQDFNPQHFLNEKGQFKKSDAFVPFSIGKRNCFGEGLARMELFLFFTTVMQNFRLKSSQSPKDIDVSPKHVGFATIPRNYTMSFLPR

[14] = molecular target: T8, CYP2J2 (Homo sapiens, UniProt P51589); test: Time-dependent inhibition (IC50 shift, NADPH pre-incubation); format: biochemical; design: purchased Life Technologies
T8 sequence (P51589 1-502): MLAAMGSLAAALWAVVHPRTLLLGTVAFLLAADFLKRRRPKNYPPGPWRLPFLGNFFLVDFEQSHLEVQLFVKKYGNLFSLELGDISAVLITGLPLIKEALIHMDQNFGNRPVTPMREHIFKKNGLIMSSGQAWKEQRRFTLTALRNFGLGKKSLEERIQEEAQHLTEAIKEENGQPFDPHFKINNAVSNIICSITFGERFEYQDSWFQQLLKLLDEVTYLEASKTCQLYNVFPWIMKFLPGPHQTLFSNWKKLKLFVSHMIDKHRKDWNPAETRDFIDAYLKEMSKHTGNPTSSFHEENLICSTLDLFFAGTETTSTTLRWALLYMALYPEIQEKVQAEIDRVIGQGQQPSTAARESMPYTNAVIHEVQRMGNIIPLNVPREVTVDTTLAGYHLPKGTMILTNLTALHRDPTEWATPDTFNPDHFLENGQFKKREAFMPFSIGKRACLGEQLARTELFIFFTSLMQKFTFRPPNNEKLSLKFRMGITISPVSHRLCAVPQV
Protocol: as §1

[15] = molecular target: T7, CYP2A6; test: as above; format: biochemical; design: purchased Life Technologies
Protocol: as §1

[16] = molecular target: T4, CYP2E1; test: as above; format: biochemical; design: purchased Life Technologies
Protocol: as §1

[17] = molecular target: T1, CYP2C19; test: as above; format: biochemical; design: purchased Life Technologies
Protocol: as §1

[18] = molecular target: T5, CYP1A2; test: as above; format: biochemical; design: purchased Life Technologies
Protocol: as §1

[19] = molecular target: T3, CYP3A5; test: as above; format: biochemical; design: purchased Life Technologies
Protocol: as §1

[20] = molecular target: T6, CYP2B6; test: as above; format: biochemical; design: purchased Life Technologies
Protocol: as §1

[21] = molecular target: T8, CYP2J2; test: Vivid CYP450 fluorescence assay, reversible inhibition
[22] = cited from earlier work; remark: listed apart in the source

T3 sequence (P20815 whole entry): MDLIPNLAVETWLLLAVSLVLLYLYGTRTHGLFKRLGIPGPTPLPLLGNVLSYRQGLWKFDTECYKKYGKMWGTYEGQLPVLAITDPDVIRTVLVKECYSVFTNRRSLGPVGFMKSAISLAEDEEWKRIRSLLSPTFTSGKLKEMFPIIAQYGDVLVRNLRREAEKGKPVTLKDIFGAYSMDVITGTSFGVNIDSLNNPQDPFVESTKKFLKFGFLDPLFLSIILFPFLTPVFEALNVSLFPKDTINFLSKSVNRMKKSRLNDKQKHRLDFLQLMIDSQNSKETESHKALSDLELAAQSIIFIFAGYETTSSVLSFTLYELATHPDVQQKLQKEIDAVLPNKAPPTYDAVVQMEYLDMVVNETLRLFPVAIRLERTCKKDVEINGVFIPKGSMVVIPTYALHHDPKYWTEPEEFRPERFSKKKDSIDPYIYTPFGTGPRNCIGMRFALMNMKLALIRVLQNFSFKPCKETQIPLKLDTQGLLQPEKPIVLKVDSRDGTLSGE
T1 sequence (P33261 whole entry): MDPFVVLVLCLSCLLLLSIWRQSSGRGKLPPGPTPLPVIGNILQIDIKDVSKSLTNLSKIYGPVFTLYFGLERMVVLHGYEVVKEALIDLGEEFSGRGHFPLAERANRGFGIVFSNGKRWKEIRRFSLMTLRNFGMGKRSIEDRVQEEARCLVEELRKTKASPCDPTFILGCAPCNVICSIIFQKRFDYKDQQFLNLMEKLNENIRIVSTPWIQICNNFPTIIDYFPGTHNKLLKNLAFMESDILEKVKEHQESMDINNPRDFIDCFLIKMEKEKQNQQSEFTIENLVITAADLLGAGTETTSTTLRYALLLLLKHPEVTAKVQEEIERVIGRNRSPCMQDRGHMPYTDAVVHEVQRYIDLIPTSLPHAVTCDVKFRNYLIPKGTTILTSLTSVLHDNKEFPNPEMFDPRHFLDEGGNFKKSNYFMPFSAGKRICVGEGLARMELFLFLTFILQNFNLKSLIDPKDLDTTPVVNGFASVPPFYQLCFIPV
T4 sequence (P05181 whole entry): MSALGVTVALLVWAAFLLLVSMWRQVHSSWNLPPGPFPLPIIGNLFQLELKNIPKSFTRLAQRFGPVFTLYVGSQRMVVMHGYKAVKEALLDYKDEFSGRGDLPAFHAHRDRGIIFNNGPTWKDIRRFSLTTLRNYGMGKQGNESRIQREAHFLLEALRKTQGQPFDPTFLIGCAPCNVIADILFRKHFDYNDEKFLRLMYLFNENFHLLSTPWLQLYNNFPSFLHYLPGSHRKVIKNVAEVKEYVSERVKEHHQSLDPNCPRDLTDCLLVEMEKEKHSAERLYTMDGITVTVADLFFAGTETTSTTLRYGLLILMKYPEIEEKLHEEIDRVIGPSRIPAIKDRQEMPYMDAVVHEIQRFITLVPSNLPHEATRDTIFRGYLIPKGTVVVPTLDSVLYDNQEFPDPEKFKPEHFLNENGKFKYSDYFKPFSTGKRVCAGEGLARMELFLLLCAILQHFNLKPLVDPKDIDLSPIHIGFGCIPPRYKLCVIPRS

For `C[C@H](N)C(=O)c1ccccc1` [Cathinone, (S)− 2-Amino-1-phenyl-1-propanone.hydrochloride], the “area under the plasma concentration – time curve (AUC) from 0 to 9 h” value [1] is listed as 415 ± 207 ng/ml per hour, the “time of maximal plasma concentration” value [1] is listed as 127 ± 30 min and the maximal plasma concentration ([1]; khat leaves equivalent to 0.8 mg cathinone/kg body weight) is listed as 127 ± 53 ng/mL. For the same compound, the terminal elimination half-life ([1]; plasma) was 4.33 ± 1.7 h, the IC50 [2] was 118 µM and the “time dependent inhibition (TDI) potency” value [3] was “no significant TDI potency”. The “Cmax (maximal plasma concentration)” value [4] was 58.9 ± 18.8 ng/mL, the absorbed [4] was 59 ± 21% and the IC50 [5] was 19.9 µM. The Ki [5] was 23.6 µM, the mode of inhibition ([5]; CYP3A5) was “noncompetitive” and the inhibitory effects [6] was “negligible inhibitory effects”. The inhibitory effects [7] was “negligible inhibitory effects”, the “inhibition of CYP2C8” value [8] was “no significant inhibition” and the IC50 [9] was 568 µM. For the same compound, the IC50 [10] was 17 µM, the Ki [10] was 57.1 µM and the mode of inhibition ([10]; CYP1A2) was “competitive”. For the same compound, the inhibitory effects [11] was “negligible inhibitory effects”, the IC50 [12] was 165 µM and the IC50 [13] was 11.5 µM. For the same compound, the Ki [13] was 13.8 µM, the mode of inhibition ([13]; CYP2A6) was “un-competitive” and the IC50 [14] was 194 µM. For the same compound, the IC50 [15] was 13.7 µM, the IC50 shift at 60 min ([15]; human, pH 8, probe Vivid CC (3-cyanocoumarin), CYP2A6, shift > 2 = significant TDI) was 0.84 and the IC50 [16] was 71.3 µM. For the same compound, the IC50 [17] was 220 µM, the IC50 [18] was 75.4 µM and the IC50 [19] was 11.1 µM. The IC50 [20] was 110 µM, the IC50 [21] was 163 µM and the plasma level ([22]; at 0.5 and 7.5 h after the start of khat chewing) was “approximately 20 ng/ml”. For the same compound, the “maximum plasma levels (mean)” value ([22]; khat chewing) was 83 ng/mL.

For `C[C@H](N)[C@@H](O)c1ccccc1` [cathine, S,S-(+)-norpseudoephedrine], the “Cmax (maximal plasma concentration)” value [4] is given as 71.2 ± 13.9 ng/mL and the absorbed [4] is given as 84 ± 6%.
